Measurements reported in paper PMC5972582, “Bidirectional GPR119 Agonism Requires Peptide YY and Glucose for Activity in Mouse and Human Colon Mucosa” (Endocrinology, 2018).
pEC50: −log10 of the molar value.

Target: T1, GPR119 (WT mouse descending colon mucosa) (Mus musculus, UniProt Q7TQP3)
T1 construct: native full-length receptor in L-cells of intact mouse colonic mucosa (Ussing chamber); no recombinant protein
T1 sequence (Q7TQP3 1-335): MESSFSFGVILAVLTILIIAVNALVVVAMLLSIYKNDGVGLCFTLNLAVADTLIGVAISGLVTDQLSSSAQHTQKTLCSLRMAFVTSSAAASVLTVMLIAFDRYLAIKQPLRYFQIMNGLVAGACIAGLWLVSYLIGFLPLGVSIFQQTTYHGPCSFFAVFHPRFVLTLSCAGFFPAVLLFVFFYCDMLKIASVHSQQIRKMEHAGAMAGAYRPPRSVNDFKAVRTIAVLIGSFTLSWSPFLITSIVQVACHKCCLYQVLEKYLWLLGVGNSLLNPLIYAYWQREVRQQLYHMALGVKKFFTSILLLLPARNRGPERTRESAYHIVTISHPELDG
Assay: short-circuit current (Isc) in native mouse descending colon mucosa, Ussing chamber
Settings: agonist, apical addition, indirect tissue read-out (PYY-mediated fall in Isc) after 10 nM VIP, 11.1 mM glucose
Excerpt: short-circuit current (Isc) in native mouse descending colon mucosa, Ussing chamber on GPR119 (WT mouse descending colon mucosa)

| Compound | pEC50 | pEC50 (partial agonist) |
| --- | --- | --- |
| AR435707 | 7.56 |  |
| CCCCCCCC/C=C\CCCCCCCC(=O)NCCO [OEA] | 4.83 |  |
| CCCCCCCC/C=C\CCCCCCCC(=O)OC(CO)CO [2-OG] | 5.31 |  |
| AR440006 | 6.77 |  |
| CC(C)c1noc(C2CCN(c3ncnc(Nc4ccc(S(C)(=O)=O)cc4F)c3[N+](=O)[O-])CC2)n1 [AR231453] |  | 8.92 |
